In ChEMBL document CHEMBL1201862, “PubChem BioAssay data set” (2004):
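Assay format: 96-well plates, 48-hour exposure. The concentration for 50% growth inhibition is given as GI50.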 Active and inactive are the calls of the source. Rule as the data show it: active = GI50 up to about 1.1 µM and inactive = higher.

Tests used:
Assay in all cases: NCI-60 cell line screen, 48 h
NCI/ADR-RES = test system: NCI/ADR-RES
K562 = test system: K562
A549 = test system: A549
RPMI-8226 = test system: RPMI-8226
ACHN = test system: ACHN
SF-268 = test system: SF-268
HT-29 = test system: HT-29
OVCAR-3 = test system: OVCAR-3
SK-OV-3 = test system: SK-OV-3
A498 = test system: A498
OVCAR-5 = test system: OVCAR-5
Malme-3M = test system: Malme-3M
HL-60 = test system: HL-60
CAKI-1 = test system: CAKI-1
SK-MEL-28 = test system: SK-MEL-28
HCT-15 = test system: HCT-15
OVCAR-8 = test system: OVCAR-8
OVCAR-4 = test system: OVCAR-4
M14 = test system: M14
SR = test system: SR

| Structure (SMILES) | GI50 (NCI/ADR-RES) | GI50 (K562) | GI50 (A549) | GI50 (RPMI-8226) | GI50 (ACHN) | GI50 (SF-268) | GI50 (HT-29) | GI50 (OVCAR-3) | GI50 (SK-OV-3) | GI50 (A498) | GI50 (OVCAR-5) | GI50 (Malme-3M) | GI50 (HL-60) | GI50 (CAKI-1) | GI50 (SK-MEL-28) | GI50 (HCT-15) | GI50 (OVCAR-8) | GI50 (OVCAR-4) | GI50 (M14) | GI50 (SR) |
| --- | --- | --- | --- | --- | --- | --- | --- | --- | --- | --- | --- | --- | --- | --- | --- | --- | --- | --- | --- | --- |
| C=C1C(=O)O[C@@H]2/C=C(\C)CC/C=C(\C)CC[C@@]12O | 10.6 µM (inactive) | 2.42 µM (inactive) | 11.6 µM (inactive) | 0.948 µM (active) | 1.59 µM (inactive) | 5.37 µM (inactive) | 2.99 µM (inactive) | 2.4 µM (inactive) | 15.6 µM (inactive) | 9.12 µM (inactive) | 11.4 µM (inactive) | 1.53 µM (inactive) | 0.771 µM (active) | 1.35 µM (inactive) | 3.99 µM (inactive) | 2.82 µM | 1.91 µM (inactive) | 1.98 µM (inactive) | 3.7 µM (inactive) | 2.42 µM (inactive) |
| C[N+](C)(CCO)CCN1c2ccccc2Sc2ccccc21 | > 10 µM (inactive) | > 10 µM (inactive) | > 10 µM (inactive) | > 10 µM (inactive) | > 10 µM (inactive) | > 10 µM (inactive) | > 10 µM (inactive) | > 10 µM (inactive) | > 10 µM (inactive) | > 10 µM (inactive) | > 10 µM (inactive) | > 10 µM (inactive) | > 10 µM (inactive) | > 10 µM (inactive) | > 10 µM (inactive) | > 10 µM | > 10 µM (inactive) | > 10 µM (inactive) | > 10 µM (inactive) | > 10 µM (inactive) |
| [N-]=[N+]=CC(=O)CCC(N)C(=O)O (stereo unspecified) | 8.38 µM (inactive) | 1.32 µM (inactive) | 1.01 µM (active) | 3.54 µM (inactive) | 1.06 µM (active) | 1.25 µM (inactive) | 0.385 µM (active) |  | 1.35 µM (inactive) | 24.8 µM (inactive) | 4.86 µM (inactive) | 6.38 µM (inactive) | 1.72 µM (inactive) | 3.8 µM (inactive) | 2.8 µM (inactive) | 0.815 µM | 2.02 µM (inactive) | 29.9 µM (inactive) | 1.33 µM (inactive) | 0.809 µM (active) |
| O=C1OC(C2Cc3ccc4c(c3C2=O)CCC4)c2ccccc21 (stereo unspecified) | 48.2 µM (inactive) | 43.3 µM (inactive) | 50 µM (inactive) | 25.3 µM (inactive) | 38.2 µM (inactive) | 42.9 µM (inactive) | 52.8 µM (inactive) | 28.4 µM (inactive) | > 100 µM (inactive) | 60.5 µM (inactive) | 85.9 µM (inactive) | 94.4 µM (inactive) | 27.4 µM (inactive) | > 100 µM (inactive) | 67.1 µM (inactive) | 39.1 µM | 56.9 µM (inactive) | 38.1 µM (inactive) | 51.1 µM (inactive) | 38.8 µM (inactive) |
| CCCCCCCCCCCCCCCCNc1nc(=O)n(C2CC(O)C(CO)O2)cc1F (stereo unspecified) | 2.86 µM (inactive) |  | 0.94 µM (active) | 15.8 µM (inactive) | 0.259 µM (active) | 2.93 µM (inactive) | 9.84 µM (inactive) | 13.9 µM (inactive) | 13.5 µM (inactive) | > 10 µM (inactive) | 18.2 µM (inactive) | 10.8 µM (inactive) | 5.47 µM (inactive) | 2.1 µM (inactive) | 12.7 µM (inactive) | 0.875 µM | 1.82 µM (inactive) | 15.7 µM (inactive) | 8.57 µM (inactive) | 4.01 µM (inactive) |
| CCOC(=O)C(NS(=O)(=O)c1ccccc1)(C(F)(F)F)P(=O)(OCC(C)C)OCC(C)C (stereo unspecified) | > 100 µM (inactive) | > 100 µM (inactive) | > 100 µM (inactive) | > 100 µM (inactive) | > 100 µM (inactive) | > 100 µM (inactive) | > 100 µM (inactive) | > 100 µM (inactive) | > 100 µM (inactive) | > 100 µM (inactive) | > 100 µM (inactive) | > 100 µM (inactive) | > 100 µM (inactive) | > 100 µM (inactive) | > 100 µM (inactive) | > 100 µM | > 100 µM (inactive) | > 100 µM (inactive) | > 100 µM (inactive) | > 100 µM (inactive) |
| Nc1nc(=O)[nH]cc1F [FLUCYTOSINE] | > 100 µM (inactive) | > 100 µM (inactive) | > 100 µM (inactive) | > 100 µM (inactive) | > 100 µM (inactive) | > 100 µM (inactive) | > 100 µM (inactive) | > 100 µM (inactive) | > 100 µM (inactive) | > 100 µM (inactive) | > 100 µM (inactive) | > 100 µM (inactive) | > 100 µM (inactive) | > 100 µM (inactive) | > 100 µM (inactive) | > 100 µM | > 100 µM (inactive) | > 100 µM (inactive) | > 100 µM (inactive) | > 100 µM (inactive) |
| Cn1c(=O)oc2cc(C(O)CN3CCN(Cc4ccc5c(c4)OCO5)CC3)ccc21 (stereo unspecified) | > 100 µM (inactive) | > 100 µM (inactive) | > 100 µM (inactive) |  | > 100 µM (inactive) | > 100 µM (inactive) | > 100 µM (inactive) | > 100 µM (inactive) | > 100 µM (inactive) | > 100 µM (inactive) | > 100 µM (inactive) | > 100 µM (inactive) | > 100 µM (inactive) | > 100 µM (inactive) | > 100 µM (inactive) | > 100 µM | > 100 µM (inactive) | > 100 µM (inactive) | > 100 µM (inactive) | > 100 µM (inactive) |
| Cc1ccc([N+](=O)[O-])cc1S(=O)(=O)Nc1ccc(C2=NN(C(=O)c3ccccc3)C(c3ccccc3)C2)cc1 (stereo unspecified) | 30.4 µM (inactive) | 18 µM (inactive) | 18.7 µM (inactive) | 25.5 µM (inactive) | 19 µM (inactive) | 18.5 µM (inactive) | 24.9 µM (inactive) | 11.9 µM (inactive) | 16 µM (inactive) | 10.9 µM (inactive) | 41.3 µM (inactive) | 18.2 µM (inactive) | 21.5 µM (inactive) | 20 µM (inactive) | 41.6 µM (inactive) | 19.5 µM | 18.9 µM (inactive) | 18.2 µM (inactive) | 24.4 µM (inactive) | 26.4 µM (inactive) |
| O=C(O)c1cccc(OCCO)c1 | > 100 µM (inactive) | > 100 µM (inactive) | > 100 µM (inactive) | > 100 µM (inactive) | > 100 µM (inactive) | > 100 µM (inactive) | > 100 µM (inactive) | > 100 µM (inactive) | > 100 µM (inactive) | > 100 µM (inactive) | > 100 µM (inactive) | > 100 µM (inactive) | > 100 µM (inactive) | > 100 µM (inactive) | > 100 µM (inactive) | > 100 µM | > 100 µM (inactive) | > 100 µM (inactive) | > 100 µM (inactive) | > 100 µM (inactive) |
| CC(=O)Nc1ccc2oc(=O)c3ccccc3c2c1 | > 100 µM (inactive) | > 100 µM (inactive) | > 100 µM (inactive) | > 100 µM (inactive) | > 100 µM (inactive) | > 100 µM (inactive) | > 100 µM (inactive) | > 100 µM (inactive) |  | > 100 µM (inactive) | > 100 µM (inactive) | > 100 µM (inactive) | > 100 µM (inactive) | > 100 µM (inactive) | > 100 µM (inactive) | > 100 µM | > 100 µM (inactive) | > 100 µM (inactive) | > 100 µM (inactive) | > 100 µM (inactive) |
